Measured values published in the supplement of paper PMC12463676, “Small-molecule dissolution of stress granules by redox modulation benefits ALS models” (Nature Chemical Biology, 2025).

Assays:
[1] = compound: O=[As]([O-])(O)O.[K+] [potassium arsenate]; test: thermal stability z-score vs DMSO; higher = more thermally stabilized by treatment; details: HeLa; arsenate concentration 1 mM
Protocol: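 Cellular thermal proteome profiling in HeLa cells treated with 1 mM arsenate for 1 h (DMSO pretreatment), heated to ten temperatures (37-66.3 °C). Soluble protein was quantified by TMT mass spectrometry relative to DMSO controls; the thermal stability score was transformed to a z-score; mean of n = 3 experiments.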

[2] = compound: NC(=O)CCCCC1CCSS1 [lipoamide]; test: as above; details: HeLa, lipoamide concentration 100 µM
Protocol: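 Cellular thermal proteome profiling in HeLa cells. Cells were treated with 100 µM lipoamide for 1 h, with or without 1 mM arsenate for a further 1 h, then heated to ten temperatures (37-66.3 °C), and soluble protein was quantified by TMT mass spectrometry relative to 0.1% DMSO controls. The thermal stability score (sum of log2 fold changes minus the abundance score) was transformed to a z-score; mean of n = 3 experiments.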

[3] = arsenate co-treatment: 1 mM arsenate 1 h
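Note: each temperature applied for 3 min, abundance score taken as mean log2 fold change at the two lowest temperatures, z-score obtained by mean subtraction and division by SD.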

MARK3 (UniProt P27448)
Sequence of UniProt P27448 (P27448 whole entry, looked up): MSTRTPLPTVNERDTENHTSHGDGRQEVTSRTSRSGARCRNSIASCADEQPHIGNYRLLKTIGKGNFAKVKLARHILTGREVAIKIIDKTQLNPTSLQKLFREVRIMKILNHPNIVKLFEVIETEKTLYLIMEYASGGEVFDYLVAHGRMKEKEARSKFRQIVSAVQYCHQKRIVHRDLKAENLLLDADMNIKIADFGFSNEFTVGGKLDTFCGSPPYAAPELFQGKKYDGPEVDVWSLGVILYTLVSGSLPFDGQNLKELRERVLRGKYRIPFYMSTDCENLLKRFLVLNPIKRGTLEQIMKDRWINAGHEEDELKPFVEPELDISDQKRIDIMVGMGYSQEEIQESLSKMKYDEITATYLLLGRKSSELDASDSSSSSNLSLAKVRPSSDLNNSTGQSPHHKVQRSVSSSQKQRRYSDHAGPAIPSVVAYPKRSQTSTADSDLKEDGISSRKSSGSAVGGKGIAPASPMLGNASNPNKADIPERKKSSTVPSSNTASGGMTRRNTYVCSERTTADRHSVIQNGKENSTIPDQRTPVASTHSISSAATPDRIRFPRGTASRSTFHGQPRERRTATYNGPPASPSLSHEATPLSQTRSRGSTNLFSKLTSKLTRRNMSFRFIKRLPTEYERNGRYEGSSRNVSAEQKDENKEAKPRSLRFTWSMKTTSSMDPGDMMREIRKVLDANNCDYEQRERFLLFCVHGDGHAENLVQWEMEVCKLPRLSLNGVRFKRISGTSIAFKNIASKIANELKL
thermal stability z-score [1]: -0.0953
thermal stability z-score [2, 3]: -0.0834
thermal stability z-score ([2]; arsenate co-treatment: none): -0.0843

MARS2 (UniProt Q96GW9)
thermal stability z-score [1]: 0.992
thermal stability z-score [2, 3]: 0.482
thermal stability z-score ([2]; arsenate co-treatment: none): 0.957

MARS (UniProt P56192)
thermal stability z-score [1]: 0.22
thermal stability z-score [2, 3]: -1.37
thermal stability z-score ([2]; arsenate co-treatment: none): -0.604

MARVELD2 (UniProt Q8N4S9)
thermal stability z-score [1]: -0.292
thermal stability z-score [2, 3]: -0.452
thermal stability z-score ([2]; arsenate co-treatment: none): 0.477

MAST2 (UniProt Q6P0Q8)
thermal stability z-score [1]: 0.00193
thermal stability z-score [2, 3]: -0.0733
thermal stability z-score ([2]; arsenate co-treatment: none): -0.0383

MASTL (UniProt Q96GX5)
thermal stability z-score [1]: -0.0433
thermal stability z-score [2, 3]: -0.0186
thermal stability z-score ([2]; arsenate co-treatment: none): -0.102

MAT2A (UniProt P31153)
thermal stability z-score [1]: 0.337
thermal stability z-score [2, 3]: -0.418
thermal stability z-score ([2]; arsenate co-treatment: none): -0.422

MAT2B (UniProt Q9NZL9)
thermal stability z-score [1]: -0.705
thermal stability z-score [2, 3]: -0.368
thermal stability z-score ([2]; arsenate co-treatment: none): -0.144

MATK (UniProt P42679)
thermal stability z-score [1]: -0.0451
thermal stability z-score [2, 3]: -0.101
thermal stability z-score ([2]; arsenate co-treatment: none): -0.0941

MATR3 (UniProt P43243)
thermal stability z-score [1]: -1.69
thermal stability z-score [2, 3]: 2.1
thermal stability z-score ([2]; arsenate co-treatment: none): 0.607

MAVS (UniProt Q7Z434)
thermal stability z-score [1]: -0.963
thermal stability z-score [2, 3]: 0.0772
thermal stability z-score ([2]; arsenate co-treatment: none): 0.294

MAX (UniProt P61244)
Sequence of UniProt P61244 (P61244 whole entry): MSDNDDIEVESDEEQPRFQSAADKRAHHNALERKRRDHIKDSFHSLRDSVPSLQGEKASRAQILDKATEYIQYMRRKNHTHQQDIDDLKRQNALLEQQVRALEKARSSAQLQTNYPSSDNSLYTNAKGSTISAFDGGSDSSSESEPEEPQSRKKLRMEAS
thermal stability z-score [1]: 2.9
thermal stability z-score [2, 3]: 2.75
thermal stability z-score ([2]; arsenate co-treatment: none): 2.05

MB21D1 (UniProt Q8N884)
thermal stability z-score [1]: 0.109
thermal stability z-score [2, 3]: 0.409
thermal stability z-score ([2]; arsenate co-treatment: none): 0.258

MB21D2 (UniProt Q8IYB1)
thermal stability z-score [1]: 0.483
thermal stability z-score [2, 3]: 0.116
thermal stability z-score ([2]; arsenate co-treatment: none): -0.198

MBD2 (UniProt Q9UBB5)
thermal stability z-score [1]: -0.294
thermal stability z-score [2, 3]: 0.0418
thermal stability z-score ([2]; arsenate co-treatment: none): 0.0688

MBD3 (UniProt O95983)
thermal stability z-score [1]: -0.483
thermal stability z-score [2, 3]: 0.379
thermal stability z-score ([2]; arsenate co-treatment: none): 0.252

MBD4 (UniProt O95243)
thermal stability z-score [1]: -0.571
thermal stability z-score [2, 3]: -0.0777
thermal stability z-score ([2]; arsenate co-treatment: none): 0.0091

MBLAC2 (UniProt Q68D91)
thermal stability z-score [1]: 0.708
thermal stability z-score [2, 3]: -0.0603
thermal stability z-score ([2]; arsenate co-treatment: none): 0.367

MBNL1 (UniProt Q9NR56)
thermal stability z-score [1]: -0.983
thermal stability z-score [2, 3]: -0.368
thermal stability z-score ([2]; arsenate co-treatment: none): -0.277

MBOAT7 (UniProt Q96N66)
thermal stability z-score [1]: -0.732
thermal stability z-score [2, 3]: -0.956
thermal stability z-score ([2]; arsenate co-treatment: none): -0.883

MBP (UniProt P02686)
thermal stability z-score [1]: 0.222
thermal stability z-score [2, 3]: 1.96
thermal stability z-score ([2]; arsenate co-treatment: none): 0.197

MBTPS1 (UniProt Q14703)
thermal stability z-score [1]: -0.822
thermal stability z-score [2, 3]: -0.923
thermal stability z-score ([2]; arsenate co-treatment: none): -0.876

MCAM (UniProt P43121)
Sequence of UniProt P43121 (P43121 whole entry): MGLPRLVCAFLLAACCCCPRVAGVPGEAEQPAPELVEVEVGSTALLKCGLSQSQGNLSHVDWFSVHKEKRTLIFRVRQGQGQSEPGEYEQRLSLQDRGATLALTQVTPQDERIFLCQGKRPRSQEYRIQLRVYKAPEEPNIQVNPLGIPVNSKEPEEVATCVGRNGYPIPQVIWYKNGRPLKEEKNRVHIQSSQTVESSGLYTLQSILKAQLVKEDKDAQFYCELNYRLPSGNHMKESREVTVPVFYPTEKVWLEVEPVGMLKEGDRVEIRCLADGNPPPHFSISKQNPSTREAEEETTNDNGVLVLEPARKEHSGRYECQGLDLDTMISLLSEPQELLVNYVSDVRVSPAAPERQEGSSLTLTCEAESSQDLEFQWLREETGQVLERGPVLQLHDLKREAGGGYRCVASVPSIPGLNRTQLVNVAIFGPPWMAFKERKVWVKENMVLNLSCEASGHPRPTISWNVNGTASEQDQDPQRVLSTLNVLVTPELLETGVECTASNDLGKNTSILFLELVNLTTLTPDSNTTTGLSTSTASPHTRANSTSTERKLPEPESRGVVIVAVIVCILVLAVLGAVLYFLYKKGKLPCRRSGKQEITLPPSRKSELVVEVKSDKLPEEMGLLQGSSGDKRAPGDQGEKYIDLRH
thermal stability z-score [1]: 0.512
thermal stability z-score [2, 3]: 0.197
thermal stability z-score ([2]; arsenate co-treatment: none): -0.281

MCAT (UniProt Q8IVS2)
thermal stability z-score [1]: 1.17
thermal stability z-score [2, 3]: 0.313
thermal stability z-score ([2]; arsenate co-treatment: none): 0.162

MCC (UniProt P23508)
thermal stability z-score [1]: -0.0394
thermal stability z-score [2, 3]: -0.1
thermal stability z-score ([2]; arsenate co-treatment: none): -0.0517

MCCC1 (UniProt Q96RQ3)
thermal stability z-score [1]: -0.585
thermal stability z-score [2, 3]: -0.187
thermal stability z-score ([2]; arsenate co-treatment: none): -0.191

MCCC2 (UniProt Q9HCC0)
thermal stability z-score [1]: -0.197
thermal stability z-score [2, 3]: 0.322
thermal stability z-score ([2]; arsenate co-treatment: none): 0.156

MCFD2 (UniProt Q8NI22)
Sequence of UniProt Q8NI22 (Q8NI22 whole entry): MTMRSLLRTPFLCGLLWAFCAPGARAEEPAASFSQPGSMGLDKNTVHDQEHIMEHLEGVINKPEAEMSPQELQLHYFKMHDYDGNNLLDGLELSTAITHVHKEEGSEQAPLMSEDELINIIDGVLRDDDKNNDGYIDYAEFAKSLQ
thermal stability z-score [1]: -0.565
thermal stability z-score [2, 3]: -0.221
thermal stability z-score ([2]; arsenate co-treatment: none): -0.109

MCL1 (UniProt Q07820)
Sequence of UniProt Q07820 (Q07820 whole entry): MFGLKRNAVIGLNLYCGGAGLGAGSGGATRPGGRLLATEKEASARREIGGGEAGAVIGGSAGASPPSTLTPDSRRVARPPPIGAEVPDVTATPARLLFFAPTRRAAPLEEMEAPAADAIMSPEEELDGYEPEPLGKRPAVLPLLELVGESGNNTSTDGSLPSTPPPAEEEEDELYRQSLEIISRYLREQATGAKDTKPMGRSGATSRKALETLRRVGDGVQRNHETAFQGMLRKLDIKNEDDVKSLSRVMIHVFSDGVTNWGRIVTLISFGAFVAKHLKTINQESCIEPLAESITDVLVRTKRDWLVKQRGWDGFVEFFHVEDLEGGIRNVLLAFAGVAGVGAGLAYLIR
thermal stability z-score [1]: 1.27
thermal stability z-score [2, 3]: 0.483
thermal stability z-score ([2]; arsenate co-treatment: none): 0.838

MCM2 (UniProt P49736)
thermal stability z-score [1]: -0.389
thermal stability z-score [2, 3]: -0.75
thermal stability z-score ([2]; arsenate co-treatment: none): -0.391

MCM3 (UniProt P25205)
thermal stability z-score [1]: 2.44
thermal stability z-score [2, 3]: -0.878
thermal stability z-score ([2]; arsenate co-treatment: none): 0.412

MCM4 (UniProt P33991)
thermal stability z-score [1]: -0.472
thermal stability z-score [2, 3]: -0.472
thermal stability z-score ([2]; arsenate co-treatment: none): -0.0478

MCM5 (UniProt P33992)
thermal stability z-score [1]: 2.47
thermal stability z-score [2, 3]: -0.676
thermal stability z-score ([2]; arsenate co-treatment: none): -0.191

MCM6 (UniProt Q14566)
thermal stability z-score [1]: -0.919
thermal stability z-score [2, 3]: -0.81
thermal stability z-score ([2]; arsenate co-treatment: none): -0.253

MCM7 (UniProt P33993)
thermal stability z-score [1]: -0.228
thermal stability z-score [2, 3]: -0.43
thermal stability z-score ([2]; arsenate co-treatment: none): -0.294

MCMBP (UniProt Q9BTE3)
thermal stability z-score [1]: 0.409
thermal stability z-score [2, 3]: -0.129
thermal stability z-score ([2]; arsenate co-treatment: none): -0.0734

MCOLN1 (UniProt Q9GZU1)
thermal stability z-score [1]: -1.27
thermal stability z-score [2, 3]: -0.724
thermal stability z-score ([2]; arsenate co-treatment: none): -0.559

MCTP2 (UniProt Q6DN12)
thermal stability z-score [1]: -0.604
thermal stability z-score [2, 3]: -0.192
thermal stability z-score ([2]; arsenate co-treatment: none): -0.145

MCTS1 (UniProt Q9ULC4)
thermal stability z-score [1]: -1.02
thermal stability z-score [2, 3]: -0.523
thermal stability z-score ([2]; arsenate co-treatment: none): -0.0571

MCU (UniProt Q8NE86)
thermal stability z-score [1]: 0.57
thermal stability z-score [2, 3]: -0.0937
thermal stability z-score ([2]; arsenate co-treatment: none): 0.21

MCUR1 (UniProt Q96AQ8)
thermal stability z-score [1]: -0.0449
thermal stability z-score [2, 3]: 0.853
thermal stability z-score ([2]; arsenate co-treatment: none): 1.15

MDC1 (UniProt Q14676)
Sequence of UniProt Q14676 (Q14676 whole entry): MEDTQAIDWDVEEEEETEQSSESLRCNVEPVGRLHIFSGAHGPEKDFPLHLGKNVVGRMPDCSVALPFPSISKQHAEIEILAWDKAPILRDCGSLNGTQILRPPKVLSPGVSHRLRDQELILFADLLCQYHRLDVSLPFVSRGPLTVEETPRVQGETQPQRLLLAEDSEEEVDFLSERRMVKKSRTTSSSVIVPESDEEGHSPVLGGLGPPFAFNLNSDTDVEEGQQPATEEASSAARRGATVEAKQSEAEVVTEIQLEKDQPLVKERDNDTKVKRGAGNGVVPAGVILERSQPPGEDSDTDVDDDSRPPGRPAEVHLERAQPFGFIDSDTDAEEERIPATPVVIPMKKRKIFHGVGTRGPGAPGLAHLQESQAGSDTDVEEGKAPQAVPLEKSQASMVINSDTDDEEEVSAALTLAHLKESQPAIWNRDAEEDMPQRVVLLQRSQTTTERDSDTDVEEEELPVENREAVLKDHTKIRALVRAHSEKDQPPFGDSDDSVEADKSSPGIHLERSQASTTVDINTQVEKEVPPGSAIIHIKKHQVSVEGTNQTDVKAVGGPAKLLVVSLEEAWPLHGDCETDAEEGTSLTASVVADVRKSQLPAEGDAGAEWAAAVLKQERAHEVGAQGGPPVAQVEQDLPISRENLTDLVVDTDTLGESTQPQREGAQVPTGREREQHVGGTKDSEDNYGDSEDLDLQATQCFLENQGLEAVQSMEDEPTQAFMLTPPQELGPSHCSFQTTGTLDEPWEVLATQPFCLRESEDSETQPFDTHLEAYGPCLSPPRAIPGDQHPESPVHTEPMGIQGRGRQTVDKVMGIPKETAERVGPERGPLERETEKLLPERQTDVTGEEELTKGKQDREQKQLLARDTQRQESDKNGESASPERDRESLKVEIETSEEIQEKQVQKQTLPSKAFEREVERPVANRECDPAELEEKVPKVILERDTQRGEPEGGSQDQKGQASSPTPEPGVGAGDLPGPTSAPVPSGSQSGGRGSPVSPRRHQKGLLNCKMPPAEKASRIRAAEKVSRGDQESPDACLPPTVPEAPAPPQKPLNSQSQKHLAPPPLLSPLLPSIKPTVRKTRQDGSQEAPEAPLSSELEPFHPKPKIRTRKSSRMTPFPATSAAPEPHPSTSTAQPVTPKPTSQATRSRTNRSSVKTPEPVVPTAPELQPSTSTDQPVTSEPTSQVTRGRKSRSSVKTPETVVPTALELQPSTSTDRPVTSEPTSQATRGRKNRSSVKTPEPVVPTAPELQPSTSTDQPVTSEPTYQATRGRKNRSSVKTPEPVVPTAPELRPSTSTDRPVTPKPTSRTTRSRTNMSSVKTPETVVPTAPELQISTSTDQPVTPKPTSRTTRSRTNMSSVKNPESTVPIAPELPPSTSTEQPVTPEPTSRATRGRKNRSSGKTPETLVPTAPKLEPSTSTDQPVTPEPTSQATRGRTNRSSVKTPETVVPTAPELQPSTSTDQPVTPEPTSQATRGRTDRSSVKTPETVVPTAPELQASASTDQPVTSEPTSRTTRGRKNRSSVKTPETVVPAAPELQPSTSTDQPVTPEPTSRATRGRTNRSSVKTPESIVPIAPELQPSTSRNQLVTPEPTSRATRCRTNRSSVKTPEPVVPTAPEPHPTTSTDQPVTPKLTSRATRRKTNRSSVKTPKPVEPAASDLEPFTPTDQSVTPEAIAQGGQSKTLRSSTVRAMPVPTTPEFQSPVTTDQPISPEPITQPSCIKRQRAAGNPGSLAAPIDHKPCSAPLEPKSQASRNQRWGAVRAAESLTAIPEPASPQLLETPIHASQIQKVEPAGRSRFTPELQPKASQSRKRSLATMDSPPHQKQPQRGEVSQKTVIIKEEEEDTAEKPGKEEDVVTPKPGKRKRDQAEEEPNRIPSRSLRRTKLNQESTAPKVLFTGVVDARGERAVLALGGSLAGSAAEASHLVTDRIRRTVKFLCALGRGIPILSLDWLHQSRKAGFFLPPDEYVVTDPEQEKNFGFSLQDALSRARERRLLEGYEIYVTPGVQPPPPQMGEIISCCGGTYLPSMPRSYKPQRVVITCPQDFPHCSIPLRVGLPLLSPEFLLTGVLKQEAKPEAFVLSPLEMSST
thermal stability z-score [1]: -0.363
thermal stability z-score [2, 3]: 0.374
thermal stability z-score ([2]; arsenate co-treatment: none): 0.00253

MDH1 (UniProt P40925)
thermal stability z-score [1]: -1.45
thermal stability z-score [2, 3]: 0.208
thermal stability z-score ([2]; arsenate co-treatment: none): 0.368

MDH2 (UniProt P40926)
thermal stability z-score [1]: -0.963
thermal stability z-score [2, 3]: 0.922
thermal stability z-score ([2]; arsenate co-treatment: none): 0.615

MDN1 (UniProt Q9NU22)
thermal stability z-score [1]: 0.0865
thermal stability z-score [2, 3]: 0.0494
thermal stability z-score ([2]; arsenate co-treatment: none): 0.0439

ME1 (UniProt P48163)
thermal stability z-score [1]: -0.207
thermal stability z-score [2, 3]: 0.408
thermal stability z-score ([2]; arsenate co-treatment: none): 0.575

ME2 (UniProt P23368)
Sequence of UniProt P23368 (P23368 whole entry): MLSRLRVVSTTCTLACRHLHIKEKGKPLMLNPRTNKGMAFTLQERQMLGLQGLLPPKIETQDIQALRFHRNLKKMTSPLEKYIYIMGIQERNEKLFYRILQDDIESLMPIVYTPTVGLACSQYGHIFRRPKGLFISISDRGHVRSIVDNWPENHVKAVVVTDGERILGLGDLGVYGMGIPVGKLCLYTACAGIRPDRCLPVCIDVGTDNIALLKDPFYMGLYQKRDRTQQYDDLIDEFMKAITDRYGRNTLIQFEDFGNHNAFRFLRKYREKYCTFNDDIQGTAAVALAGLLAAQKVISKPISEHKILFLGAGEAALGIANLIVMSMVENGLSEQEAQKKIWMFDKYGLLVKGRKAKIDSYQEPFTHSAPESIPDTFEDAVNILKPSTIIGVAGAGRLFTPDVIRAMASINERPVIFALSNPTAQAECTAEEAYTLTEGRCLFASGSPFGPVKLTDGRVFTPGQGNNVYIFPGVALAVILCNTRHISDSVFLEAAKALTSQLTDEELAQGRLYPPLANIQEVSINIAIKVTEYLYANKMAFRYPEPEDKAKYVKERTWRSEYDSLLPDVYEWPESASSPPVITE
thermal stability z-score [1]: -1.26
thermal stability z-score [2, 3]: 0.621
thermal stability z-score ([2]; arsenate co-treatment: none): -0.0427

ME3 (UniProt Q16798)
thermal stability z-score [1]: 0.6
thermal stability z-score [2, 3]: 1.29
thermal stability z-score ([2]; arsenate co-treatment: none): 1.51

MEA1 (UniProt Q16626)
thermal stability z-score [1]: 0.711
thermal stability z-score [2, 3]: 1.48
thermal stability z-score ([2]; arsenate co-treatment: none): 1.28

MEAF6 (UniProt Q9HAF1)
thermal stability z-score [1]: -0.821
thermal stability z-score [2, 3]: 0.687
thermal stability z-score ([2]; arsenate co-treatment: none): -0.0341

MECP2 (UniProt P51608)
thermal stability z-score [1]: -0.147
thermal stability z-score [2, 3]: -0.157
thermal stability z-score ([2]; arsenate co-treatment: none): -0.207

MECR (UniProt Q9BV79)
thermal stability z-score [1]: 0.152
thermal stability z-score [2, 3]: 0.217
thermal stability z-score ([2]; arsenate co-treatment: none): -0.251

MED1 (UniProt Q15648)
thermal stability z-score [1]: 0.125
thermal stability z-score [2, 3]: 0.948
thermal stability z-score ([2]; arsenate co-treatment: none): 0.662

MED4 (UniProt Q9NPJ6)
Sequence of UniProt Q9NPJ6 (Q9NPJ6 whole entry): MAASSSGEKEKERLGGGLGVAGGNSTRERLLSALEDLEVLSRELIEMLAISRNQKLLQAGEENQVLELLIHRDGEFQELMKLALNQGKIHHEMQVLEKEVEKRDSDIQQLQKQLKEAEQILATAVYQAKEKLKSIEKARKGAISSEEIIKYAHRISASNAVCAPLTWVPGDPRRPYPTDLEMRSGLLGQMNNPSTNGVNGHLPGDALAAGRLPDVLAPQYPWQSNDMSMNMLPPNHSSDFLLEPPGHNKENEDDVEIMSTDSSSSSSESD
thermal stability z-score [1]: -0.174
thermal stability z-score [2, 3]: 0.794
thermal stability z-score ([2]; arsenate co-treatment: none): 0.377

MED6 (UniProt O75586)
thermal stability z-score [1]: 0.00858
thermal stability z-score [2, 3]: 0.171
thermal stability z-score ([2]; arsenate co-treatment: none): 0.0477

MED7 (UniProt O43513)
thermal stability z-score [1]: -0.328
thermal stability z-score [2, 3]: -0.0337
thermal stability z-score ([2]; arsenate co-treatment: none): -0.104
